Data published in ChEMBL document CHEMBL3885861, “Open TG-GATES”.

Species: Rattus norvegicus
Assay: Open TG-GATES - Regimen: Single
Assay type: toxicity, organism-based, Sprague-Dawley
Set-up: regimen Single, gender Male, age 6 weeks
Conditions: in vivo, po, route gavage; for KIDNEY_L / KIDNEY_R / KIDNEY_TOTAL: tissue Kidney; for LIVER: tissue Liver; for ALP / ALT / AST / BUN / CRE / DBIL / GLC / IP / K / PL / RALB / TBIL / TC / TG / TP / gamma-GTP: tissue Plasma
[1] = 100 mg/kg, 3 h, tissue Blood, dose level Middle
[2] = 100 mg/kg, 3 h, dose level Middle
[3] = 100 mg/kg, 6 h, tissue Blood, dose level Middle
[4] = 100 mg/kg, 6 h, dose level Middle
[5] = 100 mg/kg, 9 h, tissue Blood, dose level Middle
[6] = 100 mg/kg, 9 h, dose level Middle
[7] = 100 mg/kg, 24 h, tissue Blood, dose level Middle
[8] = 100 mg/kg, 24 h, dose level Middle
[9] = 1000 mg/kg, 3 h, tissue Blood, dose level High
[10] = 1000 mg/kg, 3 h, dose level High
[11] = 1000 mg/kg, 6 h, tissue Blood, dose level High
[12] = 1000 mg/kg, 6 h, dose level High
[13] = 1000 mg/kg, 9 h, tissue Blood, dose level High
[14] = 1000 mg/kg, 9 h, dose level High
[15] = 1000 mg/kg, 24 h, tissue Blood, dose level High
[16] = 1000 mg/kg, 24 h, dose level High

CC(C)OC(=O)C(C)(C)Oc1ccc(C(=O)c2ccc(Cl)cc2)cc1 [FENOFIBRATE]
Bas [1]: 0.2% | Eos [1]: 1% | Fbg [1]: 289.2 mg/dL | Ht [1]: 41% | MCHC [1]: 32.3% | Mono [1]: 3% | RBC [1]: 610 x10_4/ul | Ret [1]: 9.8% | KIDNEY_L [2]: 0.8 g | KIDNEY_R [2]: 0.8 g | KIDNEY_TOTAL [2]: 1.6 g | LIVER [2]: 8.2 g | ALP [2]: 1478.6 IU/L | ALT [2]: 46.6 IU/L | AST [2]: 79 IU/L | BUN [2]: 9.8 mg/dL | CRE [2]: 0.2 mg/dL | DBIL [2]: 0.012 mg/dL | GLC [2]: 181.2 mg/dL | IP [2]: 10.1 mg/dL | K [2]: 4.3 meq/L | PL [2]: 145.8 mg/dL | RALB [2]: 2.6 g/dL | TBIL [2]: 0.052 mg/dL | TC [2]: 79.6 mg/dL | TG [2]: 46.4 mg/dL | TP [2]: 5.4 g/dL | gamma-GTP [2]: 1.4 IU/L | Bas [3]: 0.2% | Eos [3]: 0.4% | Fbg [3]: 261.4 mg/dL | Ht [3]: 39.8% | MCHC [3]: 32.3% | Mono [3]: 2.8% | RBC [3]: 591.2 x10_4/ul | Ret [3]: 10.3% | KIDNEY_L [4]: 0.8 g | KIDNEY_R [4]: 0.8 g | KIDNEY_TOTAL [4]: 1.6 g | LIVER [4]: 7.5 g | ALT [4]: 51.2 IU/L | AST [4]: 85.8 IU/L | BUN [4]: 8.4 mg/dL | CRE [4]: 0.2 mg/dL | DBIL [4]: 0.01 mg/dL | GLC [4]: 173 mg/dL | IP [4]: 9.8 mg/dL | K [4]: 4.2 meq/L | PL [4]: 130.8 mg/dL | RALB [4]: 2.5 g/dL | TBIL [4]: 0.054 mg/dL | TC [4]: 69.6 mg/dL | TG [4]: 37.2 mg/dL | TP [4]: 5.2 g/dL | gamma-GTP [4]: 1 IU/L | Bas [5]: 0% | Eos [5]: 1% | Fbg [5]: 292.2 mg/dL | Ht [5]: 39.2% | Lym [5]: 69.2% | MCHC [5]: 32.7% | Mono [5]: 2.6% | RBC [5]: 604 x10_4/ul | Ret [5]: 10.3% | KIDNEY_L [6]: 0.8 g | KIDNEY_R [6]: 0.8 g | KIDNEY_TOTAL [6]: 1.6 g | LIVER [6]: 7 g | ALP [6]: 1457.4 IU/L | ALT [6]: 45 IU/L | AST [6]: 83.2 IU/L | BUN [6]: 6.8 mg/dL | CRE [6]: 0.2 mg/dL | DBIL [6]: 0.008 mg/dL | GLC [6]: 159.8 mg/dL | IP [6]: 9.6 mg/dL | K [6]: 3.9 meq/L | PL [6]: 125 mg/dL | RALB [6]: 2.4 g/dL | TBIL [6]: 0.054 mg/dL | TC [6]: 70.8 mg/dL | TG [6]: 29.2 mg/dL | TP [6]: 5.3 g/dL | gamma-GTP [6]: 1 IU/L | Bas [7]: 0.2% | Eos [7]: 0.8% | Fbg [7]: 259.6 mg/dL | Ht [7]: 38.8% | MCHC [7]: 32.8% | Mono [7]: 3.2% | RBC [7]: 582.4 x10_4/ul | Ret [7]: 8.5% | KIDNEY_L [8]: 0.8 g | KIDNEY_R [8]: 0.8 g | KIDNEY_TOTAL [8]: 1.7 g | LIVER [8]: 9.8 g | ALP [8]: 1873.8 IU/L | ALT [8]: 46.4 IU/L | AST [8]: 74.4 IU/L | BUN [8]: 13 mg/dL | CRE [8]: 0.2 mg/dL | DBIL [8]: 0.012 mg/dL | GLC [8]: 187.8 mg/dL | IP [8]: 8.9 mg/dL | K [8]: 4.4 meq/L | PL [8]: 122.6 mg/dL | RALB [8]: 2.5 g/dL | TBIL [8]: 0.04 mg/dL | TC [8]: 68.6 mg/dL | TG [8]: 36.4 mg/dL | TP [8]: 5.3 g/dL | gamma-GTP [8]: 1 IU/L | Bas [9]: 0.2% | Eos [9]: 0.6% | Fbg [9]: 271.2 mg/dL | Ht [9]: 40.6% | MCHC [9]: 32.5% | Mono [9]: 3.4% | RBC [9]: 616.6 x10_4/ul | Ret [9]: 10.6% | KIDNEY_L [10]: 0.8 g | KIDNEY_R [10]: 0.8 g | KIDNEY_TOTAL [10]: 1.6 g | LIVER [10]: 7.4 g | ALT [10]: 43.2 IU/L | AST [10]: 76.6 IU/L | BUN [10]: 8.2 mg/dL | CRE [10]: 0.2 mg/dL | DBIL [10]: 0.018 mg/dL | GLC [10]: 173.6 mg/dL | IP [10]: 9.3 mg/dL | K [10]: 4.3 meq/L | PL [10]: 123.2 mg/dL | RALB [10]: 2.5 g/dL | TBIL [10]: 0.062 mg/dL | TC [10]: 64.8 mg/dL | TG [10]: 28 mg/dL | TP [10]: 5.3 g/dL | gamma-GTP [10]: 1.6 IU/L | Bas [11]: 0% | Eos [11]: 0.6% | Fbg [11]: 253.6 mg/dL | Ht [11]: 39.6% | MCHC [11]: 32.5% | Mono [11]: 2.4% | RBC [11]: 609.8 x10_4/ul | Ret [11]: 10% | KIDNEY_L [12]: 0.8 g | KIDNEY_R [12]: 0.8 g | KIDNEY_TOTAL [12]: 1.6 g | LIVER [12]: 7.4 g | ALP [12]: 1256 IU/L | ALT [12]: 43.4 IU/L | AST [12]: 75.4 IU/L | BUN [12]: 7 mg/dL | CRE [12]: 0.2 mg/dL | DBIL [12]: 0.02 mg/dL | GLC [12]: 170.4 mg/dL | IP [12]: 9 mg/dL | K [12]: 4.2 meq/L | PL [12]: 116.8 mg/dL | RALB [12]: 2.5 g/dL | TBIL [12]: 0.058 mg/dL | TC [12]: 60 mg/dL | TG [12]: 28.6 mg/dL | TP [12]: 5.2 g/dL | gamma-GTP [12]: 1.2 IU/L | Bas [13]: 0% | Eos [13]: 0.6% | Fbg [13]: 283.6 mg/dL | Ht [13]: 39.8% | MCHC [13]: 32.3% | Mono [13]: 1.8% | RBC [13]: 609.2 x10_4/ul | Ret [13]: 8.8% | KIDNEY_L [14]: 0.8 g | KIDNEY_R [14]: 0.8 g | KIDNEY_TOTAL [14]: 1.6 g | LIVER [14]: 6.9 g | ALP [14]: 1470.4 IU/L | ALT [14]: 48.4 IU/L | AST [14]: 90.4 IU/L | BUN [14]: 8 mg/dL | CRE [14]: 0.2 mg/dL | DBIL [14]: 0.014 mg/dL | GLC [14]: 152.2 mg/dL | IP [14]: 8.5 mg/dL | K [14]: 3.8 meq/L | PL [14]: 119 mg/dL | RALB [14]: 2.5 g/dL | TBIL [14]: 0.048 mg/dL | TC [14]: 62.4 mg/dL | TG [14]: 32.2 mg/dL | TP [14]: 5.3 g/dL | gamma-GTP [14]: 1 IU/L | Bas [15]: 0% | Eos [15]: 1% | Fbg [15]: 259 mg/dL | Ht [15]: 39.4% | MCHC [15]: 32.5% | Mono [15]: 3.6% | RBC [15]: 603.8 x10_4/ul | Ret [15]: 9.1% | KIDNEY_L [16]: 0.8 g | KIDNEY_R [16]: 0.8 g | KIDNEY_TOTAL [16]: 1.7 g | LIVER [16]: 9.6 g | ALT [16]: 53 IU/L | AST [16]: 84.4 IU/L | BUN [16]: 13.6 mg/dL | CRE [16]: 0.2 mg/dL | DBIL [16]: 0.014 mg/dL | GLC [16]: 172.2 mg/dL | IP [16]: 8.7 mg/dL | K [16]: 4.3 meq/L | PL [16]: 112.4 mg/dL | RALB [16]: 2.5 g/dL | TBIL [16]: 0.048 mg/dL | TC [16]: 57.2 mg/dL | TG [16]: 31.6 mg/dL | TP [16]: 5.3 g/dL | gamma-GTP [16]: 1 IU/L
